Measurements reported in patent US20260355251A1, “COMPOSITION FOR PROMOTING HAIR GROWTH” (Idea Therapeutics SL, priority 2023, published 2026).

Legend:
hair follicle cultures = conditions: between ATP and adenosine; cited from earlier work
AGA Model = assay: Macroscopic blind assessment of hair growth in DHT-induced AGA model mice (Example 5); type: in vivo, C57BL6 mice (males); conditions: male mice, day 21, intradermal on day 0 and day 3, ATP 100 μM
Description: The compositions for promoting hair growth of the invention were tested in vivo in mice, according to the following procedure.
A total of 45 6-week-old C57BL6 mice (males) from Charles River Laboratories were used.
The animals were acclimatized for 6 days, and they were administered 1 mg of DHT (5α-androstan-17β-ol-3-one, Sigma) in 100 μL of 50% DMSO (Merck)/50% Isotonic Saline Serum (Fresenius Kabi) subcutaneously for […] (5 days a week), resulting 19 administrations, instead of 20, because the dose was omitted on day 21, when the final assessment of hair growth took place. The administration of DHT began at day-4 of the testing.
The concentration of ATP in Groups 3, 4, 5 and 6 was 100 μM.
After 4 days of administration of the DHT solution (day 0), the target area was depilated using an electric shaver in the area delimited by a template. Subsequently, depilatory cream was applied with the aim of uniformizing the beginning of the anagen phase in all mice. This procedure was performed using inhalation sedation with 2% Isoflurane, maintaining the body temperature of the animals with an electric blanket and an infrared lamp. (FIG. 1). […]

androgen receptors = conditions: hair follicles; cited from earlier work

In the case of Nc1ncnc2c1ncn2[C@@H]1O[C@H](COP(=O)(O)OP(=O)(O)OP(=O)(O)O)[C@@H](O)[C@H]1O [ATP, adenosine triphosphate], the “synergistic action on hair growth of hair follicle cultures” value (hair follicle cultures) is given as “synergistic action”.

In the case of Nc1ncnc2c1ncn2[C@@H]1O[C@H](CO)[C@@H](O)[C@H]1O [adenosine], the “synergistic action on hair growth of hair follicle cultures” value (hair follicle cultures) is listed as “synergistic action”.

In the case of Nc1ncnc2c1ncn2[C@@H]1O[C@H](COP(=O)(O)OP(=O)(O)OP(=O)(O)O)[C@@H](O)[C@H]1O [ATP non-encapsulated, adenosine triphosphate], the “hair growth level: Intense (% of mice)” value (AGA Model; ADSCs high 4 × 10^6, low 1 × 10^6) is reported as 80% and the “hair growth level: Moderate (% of mice)” value (AGA Model; ADSCs high 4 × 10^6) is reported as 20%.

For C[C@]12CCC(=O)C[C@@H]1CC[C@@H]1[C@@H]2CC[C@]2(C)[C@@H](O)CC[C@@H]12 [DHT, 5α-androstan-17β-ol-3-one], the “affinity towards androgen receptors” value (androgen receptors) is given as “higher affinity towards androgen receptors in the hair follicles”.
